Literature values in patent US20230024050A1, “Dermatological Compositions and Methods of Treatment against Cutaneous T-Cell Lymphoma” (Soligenix, Inc., priority 2021, published 2023).
Where two headings read alike, the source gives them in different places.

Tests used:
[1] = administered intravenously at much higher doses
[2] = test system: CTCL patients IA, IB, IIA refractory to ≥2 previous treatments; conditions: at end of therapy, time not stated

Compound | Significant AEs on intravenous administration [1] | Response (CAILS), 24 Week ([2]; 6.5 mg/m^2, N = 15) [%^1] | Response (CAILS), 24 Week ([2]; 300 mg/m^2, N = 28) [%^1] | Response (CAILS), 24 Week ([2]; >300 mg/m^2, N = 15) [%^1]
Cc1cc(O)c2c(=O)c3c(O)cc(O)c4c5c(O)cc(O)c6c(=O)c7c(O)cc(C)c8c1c2c(c34)c(c78)c65 [hypericin] | does not cause significant AEs other than those related to photoactivity | – | – | –
C=C(c1ccc(C(=O)O)cc1)c1cc2c(cc1C)C(C)(C)CCC2(C)C [Oral Bexarotene, Bexarotene] | – | 20 | 36 | 47
